Source: the NIST ThermoML archive (doi:10.1021/je200856f)

Experiment: mn = molality of the nth substance listed, in mol/kg
Conditions: 101 kPa, Liquid; for mass density: Vibrating tube method; for electrical conductivity: Wheatstone bridge equipment

O [water] + C[N+](C)(C)CCO.[Cl-]
Conditions | mass density [kg/m3]
278.15 K, m2 = 0 | 999.961

C[N+](C)(C)CCO.[Cl-] [choline chloride] + O
Conditions | electrical conductivity [S/m] | mass density [kg/m3] | viscosity [mPa·s]
278.15 K, m1 = 0.0293 | – | – | 1.527
278.15 K, m1 = 0.054 | – | 1000.97 | –
278.15 K, m1 = 0.058 | – | – | 1.551
278.15 K, m1 = 0.1087 | – | 1001.95 | –
278.15 K, m1 = 0.1113 | – | – | 1.515
278.15 K, m1 = 0.2495 | – | – | 1.577
278.15 K, m1 = 0.2554 | – | 1004.5 | –
278.15 K, m1 = 0.3505 | – | – | 1.601
278.15 K, m1 = 0.4956 | – | – | 1.631
278.15 K, m1 = 0.5004 | – | 1008.71 | –
278.15 K, m1 = 0.6473 | – | – | 1.695
278.15 K, m1 = 0.6512 | – | 1011.01 | –
278.15 K, m1 = 0.7484 | – | 1012.68 | –
278.15 K, m1 = 0.7512 | – | – | 1.741
278.15 K, m1 = 0.903 | – | – | 1.762
278.15 K, m1 = 1.005 | – | – | 1.791
278.15 K, m1 = 1.203 | – | 1019.28 | 1.862
278.15 K, m1 = 1.504 | – | 1022.75 | –
278.15 K, m1 = 1.506 | – | – | 1.936
278.15 K, m1 = 1.99 | – | – | 2.077
278.15 K, m1 = 1.992 | – | 1028.85 | –
288.15 K, m1 = 0.0293 | – | – | 1.151
288.15 K, m1 = 0.054 | – | 1000.03 | –
288.15 K, m1 = 0.058 | – | – | 1.17
288.15 K, m1 = 0.1087 | – | 1000.95 | –
288.15 K, m1 = 0.1113 | – | – | 1.164
288.15 K, m1 = 0.2495 | – | – | 1.192
288.15 K, m1 = 0.2554 | – | 1003.33 | –
288.15 K, m1 = 0.3505 | – | – | 1.211
288.15 K, m1 = 0.4956 | – | – | 1.237
288.15 K, m1 = 0.5004 | – | 1007.27 | –
288.15 K, m1 = 0.6473 | – | – | 1.287
288.15 K, m1 = 0.6512 | – | 1009.43 | –
288.15 K, m1 = 0.7484 | – | 1011 | –
288.15 K, m1 = 0.7512 | – | – | 1.323
288.15 K, m1 = 0.903 | – | – | 1.342
288.15 K, m1 = 1.005 | – | – | 1.364
288.15 K, m1 = 1.203 | – | 1017.23 | 1.417
288.15 K, m1 = 1.504 | – | 1020.5 | –
288.15 K, m1 = 1.506 | – | – | 1.476
288.15 K, m1 = 1.99 | – | – | 1.587
288.15 K, m1 = 1.992 | – | 1026.31 | –
298.15 K, m1 = 0.0272 | 0.279 | – | –
298.15 K, m1 = 0.0293 | – | – | 0.875
298.15 K, m1 = 0.05 | 0.492 | – | –
298.15 K, m1 = 0.054 | – | 997.931 | –
298.15 K, m1 = 0.058 | – | – | 0.888
298.15 K, m1 = 0.1 | 0.919 | – | –
298.15 K, m1 = 0.1087 | – | 998.81 | –
298.15 K, m1 = 0.1113 | – | – | 0.903
298.15 K, m1 = 0.2495 | – | – | 0.908
298.15 K, m1 = 0.25 | 2.03 | – | –
298.15 K, m1 = 0.2554 | – | 1001.09 | –
298.15 K, m1 = 0.35 | 2.67 | – | –
298.15 K, m1 = 0.3505 | – | – | 0.928
298.15 K, m1 = 0.4956 | – | – | 0.95
298.15 K, m1 = 0.5 | 3.55 | – | –
298.15 K, m1 = 0.5004 | – | 1004.84 | –
298.15 K, m1 = 0.6473 | – | – | 0.984
298.15 K, m1 = 0.65 | 4.37 | – | –
298.15 K, m1 = 0.6512 | – | 1006.92 | –
298.15 K, m1 = 0.7484 | – | 1008.42 | –
298.15 K, m1 = 0.75 | 4.79 | – | –
298.15 K, m1 = 0.7512 | – | – | 1.009
298.15 K, m1 = 0.9 | 5.44 | – | –
298.15 K, m1 = 0.903 | – | – | 1.023
298.15 K, m1 = 1.005 | – | – | 1.043
298.15 K, m1 = 1.203 | – | 1014.4 | 1.082
298.15 K, m1 = 1.205 | 6.54 | – | –
298.15 K, m1 = 1.504 | – | 1017.56 | –
298.15 K, m1 = 1.505 | 7.43 | – | –
298.15 K, m1 = 1.506 | – | – | 1.127
298.15 K, m1 = 1.99 | – | – | 1.234
298.15 K, m1 = 1.992 | – | 1023.16 | –
298.15 K, m1 = 1.994 | 8.53 | – | –
308.15 K, m1 = 0.0293 | – | – | 0.715
308.15 K, m1 = 0.054 | – | 994.893 | –
308.15 K, m1 = 0.058 | – | – | 0.724
308.15 K, m1 = 0.1087 | – | 995.745 | –
308.15 K, m1 = 0.1113 | – | – | 0.732
308.15 K, m1 = 0.2495 | – | – | 0.746
308.15 K, m1 = 0.2554 | – | 997.961 | –
308.15 K, m1 = 0.3505 | – | – | 0.757
308.15 K, m1 = 0.4956 | – | – | 0.774
308.15 K, m1 = 0.5004 | – | 1001.61 | –
308.15 K, m1 = 0.6473 | – | – | 0.811
308.15 K, m1 = 0.6512 | – | 1003.63 | –
308.15 K, m1 = 0.7484 | – | 1005.09 | –
308.15 K, m1 = 0.7512 | – | – | 0.826
308.15 K, m1 = 0.903 | – | – | 0.835
308.15 K, m1 = 1.005 | – | – | 0.854
308.15 K, m1 = 1.203 | – | 1010.92 | 0.884
308.15 K, m1 = 1.504 | – | 1014 | –
308.15 K, m1 = 1.506 | – | – | 0.921
308.15 K, m1 = 1.99 | – | – | 1.007
308.15 K, m1 = 1.992 | – | 1019.47 | –
318.15 K, m1 = 0.0293 | – | – | 0.633
318.15 K, m1 = 0.054 | – | 991.063 | –
318.15 K, m1 = 0.058 | – | – | 0.61
318.15 K, m1 = 0.1087 | – | 991.902 | –
318.15 K, m1 = 0.1113 | – | – | 0.623
318.15 K, m1 = 0.2495 | – | – | 0.638
318.15 K, m1 = 0.2554 | – | 994.085 | –
318.15 K, m1 = 0.3505 | – | – | 0.646
318.15 K, m1 = 0.4956 | – | – | 0.656
318.15 K, m1 = 0.5004 | – | 997.683 | –
318.15 K, m1 = 0.6473 | – | – | 0.694
318.15 K, m1 = 0.6512 | – | 999.672 | –
318.15 K, m1 = 0.7484 | – | 1001.11 | –
318.15 K, m1 = 0.7512 | – | – | 0.69
318.15 K, m1 = 0.903 | – | – | 0.702
318.15 K, m1 = 1.005 | – | – | 0.721
318.15 K, m1 = 1.203 | – | 1006.86 | 0.747
318.15 K, m1 = 1.504 | – | 1009.9 | –
318.15 K, m1 = 1.506 | – | – | 0.776
318.15 K, m1 = 1.99 | – | – | 0.843
318.15 K, m1 = 1.992 | – | 1015.31 | –
